Measured values: patent US11884747B2, “Compstatin analogs with increased solubility and improved pharmacokinetic properties” (The Trustees of the University of Pennsylvania, priority 2018, dated 2024)
Several values for one entry are separate records, joined by “and”; a condition that tells them apart may be missing. Equal values may be shown once. Entries after “also recorded” stand apart in the source; their conditions may differ.

Experiments:
[1] = system: classical pathway of complement; assay: Classical pathway complement inhibition ELISA (C3b deposition) in normal human plasma; assay type: biochemical; conditions: human plasma diluted 1:40; mean of at least three experiments
Experimental: For this purpose, microtiter wells (NUNC) were coated with 50 μl of 1% ovalbumin in PBS (pH 7.4) at ambient temperature for 2 h. The wells were blocked with 200 μl of 1% BSA in PBS for 1 h, then coated with 50 μl of 1:1000 α-ovalbumin polyclonal antibody in PBS for 1 h. Between each step, the plate was washed thrice with 200 μl of 0.05% Tween 20 in PBS (PBS-T); 30 μl of VBS (Veronal buffer 1×; 5 mM veronal, pH 7.4, containing 150 mM NaCl, 0.5 mM CaCl2 and 0.5 mM MgCl2) were placed in all but the first well of each row of the 96-well plate, and 5 μM peptide solutions in VBS were prepared. […] Human plasma diluted 1:40 in VBS was incubated for 15 min with peptide of 0.005 to 2.5 μM. After washing with PBS-T, 50 μl/well of 1:1000 goat a-human C3 HRP conjugated antibody in 1% BSA in PBS was added to the wells and incubated for 1 h at room temperature. Complement fixation indicating activation was detected by the addition of HRP substrate (0.05% ABTS and 0.1% of 30% aqueous H2O2 in 0.1 M sodium citrate, pH 4.2) and read at 405 nm. The absorbance data obtained at 405 nm were translated into % inhibition, considering 100% to be equal to complement activation in the absence of peptide. The percent inhibition was plotted against the logarithm of concentrations, and the resulting data set was fitted to the equation “log(inhibitor) vs. normalized response” using GraphPad Prism 5 (La Jolla, CA). IC50 values were obtained from the fitted parameters of the mean of at least three independent experiments. Cp40 was always used as the internal control.

[2] = target: T1, human C3b (Homo sapiens, UniProt P01024); assay: SPR binding affinity and kinetic profile with immobilized C3b; conditions: for kd, dissociation constant / Kd / ka, association constant: 25 °C; for kd, dissociation constant / ka, association constant: 1:1 Langmuir model; for Kd: KD=kd/ka, read-out: KD, equilibrium dissociation constant
T1 construct: purchased Complement Technology, Inc., Tyler, TX
T1 sequence (P01024 23-667 limits assumed): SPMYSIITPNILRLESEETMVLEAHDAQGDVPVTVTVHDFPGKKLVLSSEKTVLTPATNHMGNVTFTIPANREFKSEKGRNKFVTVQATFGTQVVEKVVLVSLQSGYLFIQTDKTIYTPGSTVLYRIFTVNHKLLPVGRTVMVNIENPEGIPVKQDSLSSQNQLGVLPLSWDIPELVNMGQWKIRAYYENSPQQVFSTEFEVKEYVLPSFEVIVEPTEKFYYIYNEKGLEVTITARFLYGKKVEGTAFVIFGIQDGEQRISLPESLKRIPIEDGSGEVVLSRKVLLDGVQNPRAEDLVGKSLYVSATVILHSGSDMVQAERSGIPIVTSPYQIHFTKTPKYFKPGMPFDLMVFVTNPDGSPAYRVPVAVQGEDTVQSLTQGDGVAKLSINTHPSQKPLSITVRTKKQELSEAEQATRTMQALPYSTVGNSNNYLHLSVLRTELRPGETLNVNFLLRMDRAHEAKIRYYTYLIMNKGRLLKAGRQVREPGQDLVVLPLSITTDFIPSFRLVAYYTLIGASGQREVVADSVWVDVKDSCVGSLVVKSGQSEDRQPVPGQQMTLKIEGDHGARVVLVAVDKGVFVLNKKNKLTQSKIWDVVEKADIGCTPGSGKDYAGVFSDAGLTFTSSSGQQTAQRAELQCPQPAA
T1 sequence (P01024 749-1663 partner limits assumed): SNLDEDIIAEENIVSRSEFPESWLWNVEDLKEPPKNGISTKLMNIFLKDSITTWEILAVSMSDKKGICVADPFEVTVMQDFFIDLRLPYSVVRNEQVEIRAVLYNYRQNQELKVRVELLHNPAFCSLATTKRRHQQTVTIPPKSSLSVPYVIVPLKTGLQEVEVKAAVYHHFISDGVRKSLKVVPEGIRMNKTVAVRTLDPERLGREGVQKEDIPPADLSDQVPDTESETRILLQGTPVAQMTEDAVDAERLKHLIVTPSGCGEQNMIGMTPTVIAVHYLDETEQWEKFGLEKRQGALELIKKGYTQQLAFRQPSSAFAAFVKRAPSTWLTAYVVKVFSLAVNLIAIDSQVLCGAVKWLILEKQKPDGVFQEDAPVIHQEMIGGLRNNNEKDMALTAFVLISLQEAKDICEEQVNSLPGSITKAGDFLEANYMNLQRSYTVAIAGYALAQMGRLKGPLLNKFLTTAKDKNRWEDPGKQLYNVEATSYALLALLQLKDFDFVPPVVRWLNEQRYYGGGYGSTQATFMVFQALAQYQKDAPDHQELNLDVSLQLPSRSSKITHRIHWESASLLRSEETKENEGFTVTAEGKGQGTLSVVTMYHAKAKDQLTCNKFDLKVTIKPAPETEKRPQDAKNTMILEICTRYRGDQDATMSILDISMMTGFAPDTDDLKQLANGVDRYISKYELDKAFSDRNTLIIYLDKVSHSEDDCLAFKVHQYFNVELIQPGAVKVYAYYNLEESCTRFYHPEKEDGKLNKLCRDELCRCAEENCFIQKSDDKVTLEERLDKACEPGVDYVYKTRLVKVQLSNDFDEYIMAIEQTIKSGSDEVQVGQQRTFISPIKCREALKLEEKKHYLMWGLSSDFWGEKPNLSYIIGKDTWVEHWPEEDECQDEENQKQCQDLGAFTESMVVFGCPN

[3] = Residence time in the vitreous after single intravitreal injection (WES and SPR competition assay); assay type: in vivo, cynomolgus monkeys
Experimental: To determine the residence time of mPEG(3 k)-Cp40, mPEG(1 k)-Cp40, Cp40-KK, and Cp40-KKK in the vitreous of cynomolgus macaques, these Cp40-based analogs were administered intravitreally (i.v.t.) to the animals after induction of light ketamine anesthesia (10-15 mg/kg, by intramuscular injection (i.m.)) and dilation of the pupils with tropicamide/phenylephrine ophthalmic solution (see Table 6 for study design).
For i.v.t. injection, the cynomolgus monkeys were anesthetized with a combination of ketamine (15-25 mg/kg, i.m.) and xylazine (2 mg/kg, i.m.) and the eye was cleaned with povidone-iodine solution. After application of oxybuprocaine hydrochloride solution (Benoxil® ophthalmic solution 0.4%) to the cornea as a local anesthetic, the Cp40-based analogs were administered to the animals by i.v.t. injection into either the right (G1, G3) or left (G2, G4) eye of each animal. Immediately following each injection, a single topical dose of 0.5% levofloxacin was administered. After i.v.t. injection of mPEG(3 k)-Cp40, mPEG(1 k)-Cp40, Cp40-KK, and Cp40-KKK, vitreous fluid samples (about 50 μL each) were withdrawn from Cp40-based analog-treated eyes on days 14, 28, 42, (G1, G2, G3, G4), 56, 73, 90 (G1, G2) (this was done either three times or six times). Samples were collected on ice and stored in a deep freezer (˜79.3 to −68.5° C.) until further analysis. […] Presence and concentration of the Cp40-based analogs was determined using either the simple western technology (WES, ProteinSimple, San Jose, CA), or surface plasmon resonance (SPR)-based real-time measurement of binding kinetics on a Cp40-KKK immobilized chip (see detailed methods below). Similar results with regard to the intravitreal residence time and concentration levels of the test compounds were obtained regardless of the quantification method selected.
To quantify the levels of all test compounds in vitreous samples collected at different time points following i.v.t. injection (see FIG. 15), WES analysis was performed on a WES instrument (ProteinSimple, San Jose, CA) using a 2 to 40 kDa Separation Module and Anti-Rabbit Detection Module according to the manufacturers' instructions. […] The resulting electropherograms were evaluated using the Compass software (ProteinSimple, San Jose, CA). The following criteria were used to discriminate low peptide signals from background: The peak signal-to-noise (S/N) ratio given by the software must be ≥10, and the peak height/baseline ratio (calculated manually from the peak height and baseline values given by the software) must be equal to or greater than 3. […] Shown in FIG. 15 is a representative standard curve generated using the WES system and bands obtained upon running pre-determined amounts of purified peptide spiked into rabbit vitreous samples. […]

[4] = system: complement classical pathway; assay: Classical pathway activation (C3b deposition) ELISA in human plasma with or without rabbit vitreous; assay type: biochemical; conditions: in the absence of vitreous
Experimental: An alternative explanation to the one presented above is that the vitreous contains additional unidentified factors that associate with the Cp40-KKK analog. To investigate whether an unidentified vitreous factor impacts the complement inhibitory activity of lysine containing compounds, complement activation assays were performed using vitreous samples. Briefly, human plasma was incubated with OVA-anti-OVA immune-complexes in the presence of serial dilutions of the Cp40-based analogs mixed with rabbit vitreous. Levels of classical pathway activation (C3b deposition) were determined by ELISA using a polyclonal anti-human C3 antibody conjugated with HRP (MP Biomedicals, Solon, OH) (FIG. 20).

[5] = for pH of the peptide solution in PBS: at the stated concentration, indicator paper
[6] = target: C3; conditions: Qu et al. (2013); cited from earlier work
[7] = Pharmacokinetics in NHP plasma after single s.c. injection, with plasma C3 levels
[8] = Pharmacokinetics after single i.v. injection; assay type: in vivo, cynomolgus monkeys
Experimental: FIG. 11 show graphs of peptide concentration over time in cynomolgus monkeys to which was administered a single 2 mg/kg intravenous injection of Cp40-KK (panel a), Cp40-KKK (panel b), mPEG(1 k)-Cp40 (panel c), and mPEG(3 k)-Cp40 (panel d). […]
In vivo pharmacokinetic studies were conducted, in which cynomolgus monkeys were administered single i.v. injections of mPEG(1 k)-Cp40, mPEG(3 k)-Cp40, Cp40-KK, or Cp40-KKK.

kd, dissociation constant [2]	Kd [2] [nM]	in vivo Lys cleavage in plasma ([8]; after i.v. injection)	AUC(0-t) ([8]; cynomolgus monkey, plasma, iv, 2 mg/kg, single i.v. injection, read-out: AUC0-120h) [µM·h]	detection in vitreous over time ([3]; single i.v.t. 500 μg, days 14-90)	C3 saturation time (peptide above plasma level of C3) ([7]; single s.c. 2 mg/kg) [h]	drop in the binding affinity toward C3b vs Cp40 [2] [fold]	ka, association constant [2]	Structure (SMILES)	IC50 [1] [nM]	detection in vitreous ([3]; 100 μg i.v.t.)	complement classical pathway inhibitory activity [4]	pH of the peptide solution in PBS [5]	binding affinity for C3 [6]	binding affinity for C3 higher than that of the parent peptide [6]	C3 saturation time (peptide above plasma level of C3) ([7]; single s.c. 2 mg/kg, 2 mg/kg)	in vivo Lys cleavage in plasma ([7]; after s.c. injection, UPLC-ESI-MS)	CL/F, apparent clearance ([7]; single s.c. 2 mg/kg, SUM for Lys analogs, 2 mg/kg)	Conc. (mg/ml), solubility in PBS ([5]; pH 7.4) [mg/mL]
1.85 ± 0.50 10^−3s^−1	0.92 ± 0.2	–	–	–	–	–	–	CC[C@H](C)[C@H](NC(=O)[C@H](N)Cc1ccc(O)cc1)C(=O)N[C@H]1CSSC[C@@H](C(=O)N(C)[C@H](C(=O)N[C@@H](CCCCN)C(N)=O)[C@@H](C)CC)NC(=O)[C@H](CCCNC(=N)N)NC(=O)[C@H](Cc2c[nH]cn2)NC(=O)[C@H](C)NC(=O)CN(C)C(=O)[C@H](Cc2c[nH]c3ccccc23)NC(=O)[C@H](CC(=O)O)NC(=O)[C@H](CCC(N)=O)NC(=O)[C@H](Cc2cn(C)c3ccccc23)NC(=O)[C@H](C(C)C)NC1=O [Cp40-K, DTyr-Ile-[Cys-Val-Trp(Me)-Gln-Asp-Trp-Sar-Ala-His-Arg-Cys]-mlle-Lys—NH2]	95.6 ± 9.2	–	inhibitory activity in a dose-dependent manner	7.5	–	–	–	–	–	–
1.52 ± 0.25 10^−3s^−1	0.44 ± 0.17	metabolized to minimal amounts of Cp40-K	85.2	no longer detected on day 90	2.5 to 5	–	–	CC[C@H](C)[C@H](NC(=O)[C@H](N)Cc1ccc(O)cc1)C(=O)N[C@H]1CSSC[C@@H](C(=O)N(C)[C@H](C(=O)N[C@@H](CCCCN)C(=O)N[C@@H](CCCCN)C(N)=O)[C@@H](C)CC)NC(=O)[C@H](CCCNC(=N)N)NC(=O)[C@H](Cc2c[nH]cn2)NC(=O)[C@H](C)NC(=O)CN(C)C(=O)[C@H](Cc2c[nH]c3ccccc23)NC(=O)[C@H](CC(=O)O)NC(=O)[C@H](CCC(N)=O)NC(=O)[C@H](Cc2cn(C)c3ccccc23)NC(=O)[C@H](C(C)C)NC1=O [Cp40-KK, DTyr-Ile-[Cys-Val-Trp(Me)-Gln-Asp-Trp-Sar-Ala-His-Arg-Cys]-mIle-Lys-Lys—NH2]	61.8 ± 4.2	–	inhibitory activity in a dose-dependent manner	7-7.5	–	–	–	Cp40-K was also detected in the NHP plasma samples, beginning at 30 min after sc injection; also recorded: cleaved in vivo generating minimal amounts of Cp40-K	3348 ((mg/kg)/(μM · h) and 2648 ((mg/kg)/(μM · h)	–
2.45 ± 0.28 10^−3s^−1	2.58 ± 0.51	–	–	–	–	5	1.00 ± 0.27 10^6M^−1s^−1	CC[C@H](C)[C@H](NC(=O)[C@@H](Cc1ccc(O)cc1)NC(=O)CCOCCOCCOCCOCCOCCOCCOCCOCCOCCOCCOCCOC)C(=O)N[C@H]1CSSC[C@@H](C(=O)N(C)[C@H](C(N)=O)[C@@H](C)CC)NC(=O)[C@H](CCCNC(=N)N)NC(=O)[C@H](Cc2c[nH]cn2)NC(=O)[C@H](C)NC(=O)CN(C)C(=O)[C@H](Cc2c[nH]c3ccccc23)NC(=O)[C@H](CC(=O)O)NC(=O)[C@H](CCC(N)=O)NC(=O)[C@H](Cc2cn(C)c3ccccc23)NC(=O)[C@H](C(C)C)NC1=O [mPEG(528)-Cp40]	83.5 ± 8.1	–	–	7-7.5	–	–	–	–	–	2.3
2.80 ± 0.95 10^−3s^−1	3.93 ± 0.39	–	–	–	–	–	0.72 ± 0.25 10^6M^−1s^−1	CC[C@H](C)[C@H](NC(=O)[C@@H](Cc1ccc(O)cc1)NC(=O)CCOCCOCCOCCOCCOCCOCCOCCOCCOCCOCCOCCOCCOCCOCCOCCOCCOCCOCCOCCOCCOCCOCCOCCOC)C(=O)N[C@H]1CSSC[C@@H](C(=O)N(C)[C@H](C(N)=O)[C@@H](C)CC)NC(=O)[C@H](CCCNC(=N)N)NC(=O)[C@H](Cc2c[nH]cn2)NC(=O)[C@H](C)NC(=O)CN(C)C(=O)[C@H](Cc2c[nH]c3ccccc23)NC(=O)[C@H](CC(=O)O)NC(=O)[C@H](CCC(N)=O)NC(=O)[C@H](Cc2cn(C)c3ccccc23)NC(=O)[C@H](C(C)C)NC1=O [mPEG(1056)-Cp40]	52 ± 2.7	–	–	7-7.5	–	–	–	–	–	–

Structure (SMILES)	kd, dissociation constant [2]	Kd [2] [nM]	in vivo Lys cleavage in plasma ([8]; after i.v. injection)	AUC(0-t) ([8]; cynomolgus monkey, plasma, iv, 2 mg/kg, single i.v. injection, read-out: AUC0-120h) [µM·h]	detection in vitreous over time ([3]; single i.v.t. 500 μg, days 14-90)	C3 saturation time (peptide above plasma level of C3) ([7]; single s.c. 2 mg/kg) [h]	drop in the binding affinity toward C3b vs Cp40 [2] [fold]	ka, association constant [2]	IC50 [1] [nM]	detection in vitreous ([3]; 100 μg i.v.t.)	complement classical pathway inhibitory activity [4]	pH of the peptide solution in PBS [5]	binding affinity for C3 [6]	binding affinity for C3 higher than that of the parent peptide [6]	C3 saturation time (peptide above plasma level of C3) ([7]; single s.c. 2 mg/kg, 2 mg/kg)	in vivo Lys cleavage in plasma ([7]; after s.c. injection, UPLC-ESI-MS)	CL/F, apparent clearance ([7]; single s.c. 2 mg/kg, SUM for Lys analogs, 2 mg/kg)	Conc. (mg/ml), solubility in PBS ([5]; pH 7.4) [mg/mL]
CC[C@H](C)[C@H](NC(=O)[C@H](N)Cc1ccc(O)cc1)C(=O)N[C@H]1CSSC[C@@H](C(=O)N(C)[C@H](C(N)=O)[C@@H](C)CC)NC(=O)[C@H](CCCNC(=N)N)NC(=O)[C@H](Cc2c[nH]cn2)NC(=O)[C@H](C)NC(=O)CN(C)C(=O)[C@H](Cc2c[nH]c3ccccc23)NC(=O)[C@H](CC(=O)O)NC(=O)[C@H](CCC(N)=O)NC(=O)[C@H](Cc2cn(C)c3ccccc23)NC(=O)[C@H](C(C)C)NC1=O [Cp40, DTyr-Ile-[Cys-Val-Trp(Me)-Gln-Asp-Trp-Sar-Ala-His-Arg-Cys]-mIle-NH2, reference compound]	1.84 ± 0.40 10^−3s^−1	0.53 ± 0.14	–	–	–	–	–	–	56.8 ± 3	no detection of any compound was observed after one month	inhibitory activity in a dose-dependent manner	7.5	subnanomolar	~6,000 fold	4 to 5 h and ~4.5 h	–	–	–
